Experimental data: patent US9101136B2, “Synergistic herbicide/fungicide composition containing certain pyridine carboxylic acids and certain fungicides” (Dow AgroSciences LLC, priority 2010, dated 2015)
Counter-ions that a name gives are not always drawn. Like-named read-outs stand apart in the source and are kept apart here.

Experiments:
Format in all cases: in vivo
[1] = tested on: kochia (Kochia scoparia L; KCHSC); experiment: Postemergence herbicidal activity of mixtures on kochia; parameters: KCHSC Ob: unit: %; details: for KCHSC Ob (observed control): alone
Description: (§1) Seeds of the desired test plant species were planted in Sun Gro MetroMix 306 planting mixture, which typically has a pH of 6.0 to 6.8 and an organic matter content of about 30 percent, in plastic pots with a surface area of 103.2 square centimeters (cm^2). When required to ensure good germination and healthy plants, a fungicide treatment and/or other chemical or physical treatment was applied. The plants were grown for 7-36 days (d) in a greenhouse with an approximate 14-hour (h) photoperiod which was maintained at about 18° C. during the day and 17° C. during the night. Nutrients and water were added on a regular basis and supplemental lighting was provided with overhead metal halide 1000-Watt lamps as necessary. The plants were employed for testing when they reached the second or third true leaf stage.
(§2) Treatments consisted of a cereal fungicide compound (as listed in Tables 1 through 34) and the cereal herbicide, 4-amino-3-chloro-6-(4-chloro-2-fluoro-3-methoxyphenyl)pyridine-2-carboxylic acid, alone and in combination. Weighed amounts of acid, esters (methyl) or salts (triethylammonium, TEA) of 4-amino-3-chloro-6-(4-chloro-2-fluoro-3-methoxyphenyl)pyridine-2-carboxylic acid (Compound I) were placed in 25 milliliter (mL) glass vials and dissolved in a volume of 97:3 volume-to-volume (v/v) acetone/dimethyl sulfoxide (DMSO) to obtain 4.5 milligrams active ingredient per milliliter (mg ai/mL) concentrated solutions. […] The concentrated solutions of Compound I were diluted to 1.5 mg ai/mL with the addition of 2 volumes of an aqueous mixture containing acetone, water, isopropyl alcohol, DMSO, Agri-dex crop oil concentrate, and Triton® X-77 surfactant in a 64.7:26.0:6.7:2.0:0.7:0.01 v/v ratio. A dilution solution was prepared by mixing 1 volume of 97:3 v/v acetone/DMSO and 2 volumes of an aqueous mixture containing acetone, water, isopropyl alcohol, DMSO, Agri-dex crop oil concentrate, and Triton® X-77 surfactant in a 64.7:26.0:6.7:2.0:0.7:0.01 v/v ratio. Compound requirements are based upon a 12 mL application volume at a rate of 187 liters per hectare (L/ha). The concentrated solutions of the cereal fungicides were prepared following the same procedure. Weighed amounts of fungicide were placed in 25 mL glass vials and dissolved in a volume of 97:3 v/v acetone/DMSO to obtain concentrated fungicide solutions. The concentrated solutions of the safener were prepared following the same procedure. Weighed amounts of safener were placed in 25 mL glass vials and dissolved in a volume of 97:3 v/v acetone/DMSO to obtain concentrated safener solutions.
(§3) Spray solutions of the cereal herbicide and the fungicidal compound mixtures were prepared by adding the concentrated solutions to the appropriate amount of dilution solution to form 12 mL spray solution with active ingredients in combinations. Spray solutions of the cereal herbicide, herbicide safener and the fungicidal compound mixtures were prepared by adding the concentrated solutions to the appropriate amount of dilution solution to form 12 mL spray solution with active ingredients in combinations.
(§4) Formulated compounds were applied to the plant material with an overhead Mandel track sprayer equipped with 8002E nozzles calibrated to deliver 187 L/ha over an application area of 0.503 square meters (m^2) at a spray height of 18 inches […] above average plant canopy. Control plants were sprayed in the same manner with the solvent blank.
(§5) The treated plants and control plants were placed in a greenhouse as described above and watered by sub-irrigation to prevent wash-off of the test compounds. After 20-22 d, the condition of the test plants as compared with that of the control plants was determined visually and scored on a scale of 0 to 100 percent where 0 corresponds to no injury and 100 corresponds to complete kill. […]

[2] = tested on: scented mayweed (Matricaria chamomila L; MATCH); experiment: Postemergence herbicidal activity of mixtures on scented mayweed; details: for MATCH Ob (observed control): alone
Description: as §1, §2, §3, §4, §5

[3] = tested on: Russian thistle (Salsola iberica L; SASKR); experiment: Postemergence herbicidal activity of mixtures on Russian thistle; details: for SASKR Ob (observed control): alone
Description: as §1, §2, §3, §4, §5

[4] = tested on: bird's-eye speedwell (Veronica persica L; VERPE); experiment: Postemergence herbicidal activity of mixtures on bird's-eye speedwell; details: for VERPE Ob (observed control): alone
Description: as §1, §2, §3, §4, §5

[5] = tested on: wild pansy (Viola tricolor L; VIOTR); experiment: Postemergence herbicidal activity of mixtures on wild pansy
Description: as §1, §2, §3, §4, §5

[6] = tested on: Wheat; experiment: Safening activity of herbicidal compositions on wheat (crop injury)
Description: as §1, §2, §3, §4, §5

[7] = tested on: Barley; experiment: Safening activity of herbicidal compositions on barley (crop injury)
Description: as §1, §2, §3, §4, §5

O=C(O)COc1ccc(Cl)c2cccnc12 [Cloquintocet]
KCHSC Ob ([1]; Cloquintocet 4.4 g/ha): 0
KCHSC Ob ([1]; Cloquintocet 8.75 g/ha): 0
MATCH Ob ([2]; Cloquintocet 4.4 g/ha): 0
MATCH Ob ([2]; Cloquintocet 8.75 g/ha): 0
SASKR Ob ([3]; Cloquintocet 4.4 g/ha): 0
SASKR Ob ([3]; Cloquintocet 8.75 g/ha): 0
VERPE Ob ([4]; Cloquintocet 4.4 g/ha): 0
VERPE Ob ([4]; Cloquintocet 8.75 g/ha): 0
VIOTR Ob ([5]; Cloquintocet 4.4 g/ha): 0
VIOTR Ob ([5]; Cloquintocet 8.75 g/ha): 0
TRZAS Ob ([6]; Cloquintocet 4.4 g/ha): 0
TRZAS Ob ([6]; Cloquintocet 8.75 g/ha): 0
HORVS Ob ([7]; Cloquintocet 4.4 g/ha): 0
HORVS Ob ([7]; Cloquintocet 8.75 g/ha): 0

CO/C=C(/C(=O)OC)c1ccccc1Oc1cc(Oc2ccccc2C#N)ncn1 [Azoxystrobin, methyl (αE)-2-[[6-(2-cyanophenoxy)-4-pyrimidinyl]oxy]-α-(methoxymethylene)benzeneacetate]
pest or weed control at 62.5 g/ha ([1]; Bassia scoparia, post-emergence, fungicide 62.5 g/ha alone, read-out: KCHSC Ob): 0%
KCHSC Ob ([1]; fungicide 250 g/ha): 0
pest or weed control at 62.5 g/ha ([2]; Matricaria, post-emergence, fungicide 62.5 g/ha alone, read-out: MATCH Ob): 0%
MATCH Ob ([2]; fungicide 250 g/ha): 0
pest or weed control at 62.5 g/ha ([3]; Salsola tragus, post-emergence, fungicide 62.5 g/ha alone, read-out: SASKR Ob): 0%
SASKR Ob ([3]; fungicide 250 g/ha): 0
VERPE Ob ([4]; fungicide 250 g/ha): 0
pest or weed control at 62.5 g/ha ([5]; Viola tricolor, post-emergence, fungicide 62.5 g/ha alone, read-out: VIOTR Ob): 0%
TRZAS Ob ([6]; fungicide 250 g/ha): 0
HORVS Ob ([7]; fungicide 250 g/ha): 0

CO/N=C(/C(=O)OC)c1ccccc1CO/N=C(\C)c1cccc(C(F)(F)F)c1 [Trifloxystrobin, methyl (αE)-α-(methoxyimino)-2-[[[[(1E)-1-[3-(trifluoromethyl)phenyl]ethylidene]amino]oxy]methyl]benzeneacetate]
KCHSC Ob (observed control) ([1]; 62.5 g/ha): 0%
MATCH Ob (observed control) ([2]; 62.5 g/ha): 0%
SASKR Ob (observed control) ([3]; 62.5 g/ha): 0%
VERPE Ob (observed control) ([4]; 62.5 g/ha): 0%
pest or weed control at 62.5 g/ha ([5]; Viola tricolor, post-emergence, alone, 62.5 g/ha, read-out: VIOTR Ob (observed control)): 0%

N#Cc1c(Cl)c(Cl)c(Cl)c(C#N)c1Cl [Chlorothalonil, 2,4,5,6-tetrachloro-1,3-benzenedicarbonitrile]
pest or weed control at 250 g/ha ([1]; Bassia scoparia, post-emergence, fungicide 250 g/ha alone, read-out: KCHSC Ob): 0%
pest or weed control at 250 g/ha ([2]; Matricaria, post-emergence, fungicide 250 g/ha alone, read-out: MATCH Ob): 0%
pest or weed control at 250 g/ha ([3]; Salsola tragus, post-emergence, fungicide 250 g/ha alone, read-out: SASKR Ob): 0%
pest or weed control at 250 g/ha ([4]; Veronica persica, post-emergence, fungicide 250 g/ha alone, read-out: VERPE Ob): 0%
pest or weed control at 250 g/ha ([5]; Viola tricolor, post-emergence, fungicide 250 g/ha alone, read-out: VIOTR Ob): 0%

[[2-[(dithiocarboxy)amino]ethyl]carbamo-dithioato(2^−)-κS,κS′]manganese mixture with [[2-[(dithiocarboxy)amino]ethyl]carbamo-dithioato(2^−)-κS,κS′]zinc [Mancozeb]
KCHSC Ob ([1]; fungicide 281.25 g/ha alone): 0%
MATCH Ob ([2]; fungicide 281.25 g/ha alone): 0%
SASKR Ob ([3]; fungicide 281.25 g/ha alone): 0%
VERPE Ob ([4]; fungicide 281.25 g/ha alone): 0%
VIOTR Ob ([5]; fungicide 281.25 g/ha alone): 0%

COc1c(Cl)ccc(-c2cc(N)c(Cl)c(C(=O)O)n2)c1F [Compound I TEA Salt, 4-amino-3-chloro-6-(4-chloro-2-fluoro-3-methoxyphenyl)pyridine-2-carboxylic acid]
KCHSC Ob ([1]; Compound I 8.75 g/ha alone): 40%
KCHSC Ob ([1]; Compound I 17.5 g/ha alone): 55%
KCHSC Ob ([1]; Compound I 35 g/ha alone): 65%
KCHSC Ob (observed control) ([1]; 8.75 g/ha): 40%
KCHSC Ob (observed control) ([1]; 17.5 g/ha): 55%
KCHSC Ob (observed control) ([1]; 35 g/ha): 65%
MATCH Ob ([2]; Compound I 8.75 g/ha alone): 40%
pest or weed control at 17.5 g/ha ([2]; Matricaria, post-emergence, Compound I 17.5 g/ha alone, read-out: MATCH Ob): 67%
pest or weed control at 35 g/ha ([2]; Matricaria, post-emergence, Compound I 35 g/ha alone, read-out: MATCH Ob): 73%
MATCH Ob (observed control) ([2]; 8.75 g/ha): 40%
MATCH Ob (observed control) ([2]; 17.5 g/ha): 67%
MATCH Ob (observed control) ([2]; 35 g/ha): 73%
pest or weed control at 8.75 g/ha ([3]; Salsola tragus, post-emergence, Compound I 8.75 g/ha alone, read-out: SASKR Ob): 80%
pest or weed control at 17.5 g/ha ([3]; Salsola tragus, post-emergence, Compound I 17.5 g/ha alone, read-out: SASKR Ob): 84%
pest or weed control at 35 g/ha ([3]; Salsola tragus, post-emergence, Compound I 35 g/ha alone, read-out: SASKR Ob): 86%
SASKR Ob (observed control) ([3]; 8.75 g/ha): 80%
SASKR Ob (observed control) ([3]; 17.5 g/ha): 84%
SASKR Ob (observed control) ([3]; 35 g/ha): 86%
VERPE Ob ([4]; Compound I 8.75 g/ha alone): 10%
VERPE Ob ([4]; Compound I 17.5 g/ha alone): 40%
VERPE Ob ([4]; Compound I 35 g/ha alone): 70%
VERPE Ob (observed control) ([4]; 8.75 g/ha): 10%
VERPE Ob (observed control) ([4]; 17.5 g/ha): 40%
VERPE Ob (observed control) ([4]; 35 g/ha): 70%
VIOTR Ob ([5]; Compound I 8.75 g/ha alone): 23%
VIOTR Ob ([5]; Compound I 17.5 g/ha alone): 40%
VIOTR Ob ([5]; Compound I 35 g/ha alone): 47%
pest or weed control at 17.5 g/ha ([5]; Viola tricolor, post-emergence, alone, 17.5 g/ha, read-out: VIOTR Ob (observed control)): 40%
pest or weed control at 35 g/ha ([5]; Viola tricolor, post-emergence, alone, 35 g/ha, read-out: VIOTR Ob (observed control)): 47%
VIOTR Ob (observed control) ([5]; alone, 8.75 g/ha): 23%

CCCC1COC(Cn2cncn2)(c2ccc(Cl)cc2Cl)O1 (stereo not shown) [Propiconazole, 1-[[2-(2,4-dichlorophenyl)-4-propyl-1,3-dioxolan-2-yl]methyl]-1H-1,2,4-triazole]
pest or weed control at 31.25 g/ha ([1]; Bassia scoparia, post-emergence, fungicide 31.25 g/ha alone, read-out: KCHSC Ob): 0%
pest or weed control at 31.25 g/ha ([2]; Matricaria, post-emergence, fungicide 31.25 g/ha alone, read-out: MATCH Ob): 0%
pest or weed control at 31.25 g/ha ([3]; Salsola tragus, post-emergence, fungicide 31.25 g/ha alone, read-out: SASKR Ob): 0%
pest or weed control at 31.25 g/ha ([4]; Veronica persica, post-emergence, fungicide 31.25 g/ha alone, read-out: VERPE Ob): 0%
pest or weed control at 31.25 g/ha ([5]; Viola tricolor, post-emergence, fungicide 31.25 g/ha alone, read-out: VIOTR Ob): 0%

CCCN(CCOc1c(Cl)cc(Cl)cc1Cl)C(=O)n1ccnc1 [Prochloraz, N-propyl-N-[2-(2,4,6-trichlorophenoxy)ethyl]-1H-imidazole-1-carboxamide]
pest or weed control at 101.25 g/ha ([1]; Bassia scoparia, post-emergence, read-out: KCHSC Ob): 0%
pest or weed control at 101.25 g/ha ([2]; Matricaria, post-emergence, read-out: MATCH Ob): 0%
pest or weed control at 101.25 g/ha ([3]; Salsola tragus, post-emergence, read-out: SASKR Ob): 0%
pest or weed control at 101.25 g/ha ([4]; Veronica persica, post-emergence, read-out: VERPE Ob): 0%
pest or weed control at 101.25 g/ha ([5]; Viola tricolor, post-emergence, read-out: VIOTR Ob): 0%
